The test system of data set [1] is control cell line without sweet receptor (HEKα15#17). Description: Control cell line without sweet receptor in the same calcium cell based assay. The method, then: For measurement of human T1R2/T1R3 taste receptor dependent activity a control cell line without sweet receptor based on HEK 293 and a cell line expressing the sweet receptor hT1R2/hT1R3 based on HEK 293, respectively, are seeded into assay plates and labelled with the calcium sensitive fluorescence dye Fluo4-AM in a culture medium. The potential modulators, e.g. the test compound, are added to the control cell line and to the cell line expressing the sweet receptor hT1R2/hT1R3, respectively.
A stable cell line based on HEK293 was termed HEKα15#17 served as control for functional Ga-protein and a stable cell line HEKGα15#17R2R3b#8 C6 served as cell line expressing the sweet receptor hT1R2/hT1R3 based on HEKGα15#17.
The cells were cultured in DMEM/HG and 10% FCS Gold, 4 mM L-Glutamin, 1,3 mg/ml Geneticin (HEKGα15#17) or the same medium additionally containing 6 μg/ml Blasticidin (HEKGα15#17R2R3b#8 C6). The medium for the assay was DMEM/HG (high glucose, 4.5 g/l glucose, Life Technologies) and 10% FCS Gold, 4 mM L-Glutamin (HEKGα15#17) or DMEM/LG (low glucose, 1 g/l glucose; Life Technologies) and 10% FCS Gold (HEKGα15#17R2R3b#8C6), respectively.
In order to evaluate the sweet receptor modulating activity of the compound of formula (Ia), compound of formula (Ia) was added to the cultures in a concentration of 25 μM in a volume of 50 μl. Controls were KH-buffer (Krebs HEPES-buffer: 118 mM NaCl, 4.7 mM KCl, 1.2 mM MgSO4, 1.2 mM KH2PO4, 4.2 mM NaHCO3, 1.3 mM CaCl2, 10 mM Hepes, pH 7.4) either without or with sweetness enhancer.
Further controls for function of G-protein and receptor were isoproterenol (1 μM, Sigma Aldrich), ionomycin (1 μM, Calbiochem) and ATP (1 μM, Applichem).
For measurement of human T1R2/T1R3 taste receptor dependent activity, on day 1 of the test procedure the HEKα15#17 cells (control cell line without sweet receptor) and the HEKGα15#17R2R3b#8 C6 cells (cell line expressing the sweet receptor hT1R2/hT1R3), respectively, were transferred to low-glucose medium.
On day 2 the cells were seeded into assay plates at a density of 25,000 cells/well. Assay plates for fluorescence measurement (black clear bottom 96-cavity plates, Greiner Bio-One) were coated with poly-D-lysine. For direct comparison both cell lines (control cell line without sweet receptor and cell line expressing the sweet receptor hT1R2/hT1R3) were seeded into different cavities of the same assay plate. The plate was placed into the incubator for 48 hours at 37° C., 5% CO2, 100% relative humidity.
On day 4 the calcium assay was performed. For this assay, the cells were marked with Fluo4-AM in medium and KH-buffer. To each cavity 100 μl KH-buffer/250 μM sulfinpyrazone/4 μM Fluo4-AM were added gently to 100 μl medium (final concentration of Fluo4-AM=2 μM, stock solution of Fluo4-AM 1 mM in DMSO, excitation at 485 nm, emission at 520 nm, Fisher Scientific, 58239 Schwerte, Germany).
The plate was placed into the incubator for 1 hour. In the mean time the test substances (“ligands”) were prepared in a separate plate (5 times concentrated, 150 μl/cavity, and then automatically 50 μl/cavity were transferred into the screening cell plate by pipetting robot (FLEX-station, Molecular Devices, Sunnyvale, Calif.).
The culture medium was carefully removed and 200 μl KH-buffer/250 μM sulfinpyrazone per cavity was added slowly. Cells were left in the FLEX-station for 20 minutes for adaptation, followed by measurement at 37° C.

Data set [2] in a line: Stability test at 30° C. at three pH-values (HPLC). The format is physicochemical. The note with it: for Stability: 30° C., 8 weeks, 0.2 mM, HPLC. As for the experimental part:
The stability of the compound of formula (Ia) was tested at 30° C. at three different pH-values.
The test ran over 8 weeks with the compound of formula (Ia) placed in temperature controlled ovens. Samples were taken according to the following scheme: Days 0, 3, 6, 10, 14, 21, and 28 followed by weeks 6 and 8. All samples were analyzed by HPLC. Reference samples for days 3, 6, 10, 14, 21, and 28 plus weeks 6 and 8 were kept at −20° C. and analyzed together with the samples at 30° C.
Each individual sample of the compound of formula (Ia) contained 18 μg in 200 μl buffer (0.2 mM). All samples were prepared in 1.5 ml HPLC vials at the same day. Samples for day 0 were immediately analyzed and all other samples placed in ovens. Reference samples were immediately frozen at −20° C.
One reference sample per pH-value was used. Samples from the oven were taken and reference samples were added after thawing. The set of samples at 30° with reference sample was grouped into the HPLC autosampler to minimize the time gap between HPLC-analysis within each set of samples. All samples were analyzed by double injections.
Samples were analyzed by the method shown below. The target peak was manually integrated and mean values of double injections were used to prepare graphs for assessment of the stability (see FIGS. 4 to 6).

SMILES strings stand for the structures.

As to `CC(=O)N(O)CCCCCNC(=O)C(O)(CC(=O)O)CC(=O)NCCCN(O)C(C)=O` (stereo not shown) [compound of formula (Ia)], the “Fluo4-AM fluorescence increase (activation of control cell line)” value in data set [1] (25 μM, in the presence of fructose (20 mM), FIG. 1 ninth bar) is on record as “does not activate the control cell line”; in data set [1] (25 μM, without fructose, FIG. 1 eighth bar) it was “does neither activate the control cell line”; in data set [1] (secondary screening, in the presence of fructose, FIG. 1 seventh bar), “does not activate the control cell line”. Further, the Stability entry is “stable during 8 weeks at 30 °C at pH=3.0” in data set [2] (pH=3.0 Na-Citrate buffer, FIG. 4); “stable during 8 weeks at 30 °C at pH=4.5” in data set [2] (pH=4.5 Na-Citrate buffer, FIG. 5); “stable during 8 weeks at 30 °C at pH=6.5” in data set [2] (pH=6.5 phosphate buffer, FIG. 6). In data set [2] (summary of the test at 30° C., pH 3.0, 4.5, 6.5), the “Temperature and pH stability (overall)” value was “excellent temperature and pH stability”.

The record behind these values is patent US20140010939A1, “Sweetness Enhancers, Sweetener Compositions, Methods of Making the Same and Consumables Containing the Same” (Nutrinova Nutrition Specialties & Food Ingredients GmbH, priority 2011, published 2014).
